Laboratory results taken from patent US11795177B2, “Substituted quinoline analogs as aldehyde dehydrogenase 1A1 (ALDH1A1) inhibitors” (THE UNITED STATES OF AMERICA, AS REPRESENTED BY THE …, priority 2017, dated 2023).

How the values were obtained:
ALDH1A1 enzyme = molecular target: T1, ALDH1A1 enzyme (Homo sapiens, UniProt P00352); assay: ALDH1A1 enzymatic assay (in vitro); type: biochemical; details: ALDH1A1 enzyme 20 nM, NAD+ 1 mM, propionaldehyde 80 μM; read-out: ALDH1A1 IC50
T1 sequence (P00352 1-501): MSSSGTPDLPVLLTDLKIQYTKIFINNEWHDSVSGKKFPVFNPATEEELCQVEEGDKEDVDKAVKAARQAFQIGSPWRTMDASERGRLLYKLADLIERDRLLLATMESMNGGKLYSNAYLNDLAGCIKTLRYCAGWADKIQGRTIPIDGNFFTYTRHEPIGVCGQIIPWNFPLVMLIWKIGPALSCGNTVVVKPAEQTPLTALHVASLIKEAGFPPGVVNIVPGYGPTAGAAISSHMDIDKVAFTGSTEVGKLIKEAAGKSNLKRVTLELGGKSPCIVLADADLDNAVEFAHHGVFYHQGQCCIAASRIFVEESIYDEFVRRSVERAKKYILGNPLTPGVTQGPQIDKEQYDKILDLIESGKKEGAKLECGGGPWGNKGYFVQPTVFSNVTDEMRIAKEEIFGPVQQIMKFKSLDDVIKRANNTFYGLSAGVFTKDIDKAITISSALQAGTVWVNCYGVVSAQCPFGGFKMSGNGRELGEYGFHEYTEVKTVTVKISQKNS
In short: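 ALDH1A1 (20 nM final) in 100 mM HEPES pH 7.5, 0.01% Tween 20 was preincubated 15 min at RT with compound (968 pM–57.2 μM final), then started with 1 mM NAD+ and 80 μM propionaldehyde. NADH fluorescence (ex 340/em 450 nm) followed kinetically for 10 min; change normalized to no-inhibitor and no-enzyme controls for percent inhibition and curve fitting.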

MIA PaCa-2 cells = assay: MIA PaCa2 cell-based assay (1,536-well high-content imaging ALDEFLUOR assay); set-up: species or system human; details: Homo sapiens, 0.5 h, ALDEFLUOR BAAA substrate 500 nM, 30 minutes
In short: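 High-content ALDEFLUOR imaging readout: BAA-retaining cells in FITC channel scored against Hoechst-counted nuclei. Before imaging, MIA PaCa-2 cells seeded at 1,000 per well received final 500 nM BAAA and 0.5 nM Hoechst with compounds in 16-point series (1.4 nM to 47.8 μM), 30 min, 37° C.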

Compound	IC50 (ALDH1A1 enzyme) [nM]	IC50 (MIA PaCa-2 cells) [nM]
O=C(c1cnc2cc(F)c(F)cc2c1N1CCC2(CC1)OCCO2)N1CCN(C(=O)N2CCCC2)CC1 [Example 170, (6,7-difluoro-4-(1,4-dioxa-8-azaspiro[4.5]decan-8-yl)quinolin-3-yl)(4-(pyrrolidine-1-carbonyl)piperazin-1-yl)methanone]	< 500	1000 to 10000
CCS(=O)(=O)N1CCN(C(=O)c2cnc3cc(F)c(F)cc3c2N2CCC3(CC2)OCCO3)CC1 [Example 171, (6,7-difluoro-4-(1,4-dioxa-8-azaspiro[4.5]decan-8-yl)quinolin-3-yl)(4-(ethylsulfonyl)piperazin-1-yl)methanone]	< 500	1000 to 10000
CN(C)S(=O)(=O)N1CCN(C(=O)c2cnc3cc(F)c(F)cc3c2N2CCC3(CC2)OCCO3)CC1 [Example 172, 4-(6,7-difluoro-4-(1,4-dioxa-8-azaspiro[4.5]decan-8-yl)quinoline-3-carbonyl)-N,N-dimethylpiperazine-1-sulfonamide]	< 500	500 to 1000
O=C(c1cnc2cc(F)c(F)cc2c1N1CCC2(CC1)OCCO2)N1CCN(S(=O)(=O)N2CCCC2)CC1 [Example 173, (6,7-difluoro-4-(1,4-dioxa-8-azaspiro[4.5]decan-8-yl)quinolin-3-yl)(4-(pyrrolidin-1-ylsulfonyl)piperazin-1-yl)methanone]	< 500	> 10000
CCN(CC)C(=O)N1CCN(C(=O)c2cnc3cc(F)c(F)cc3c2N2CCC(C)(C#N)CC2)CC1 [Example 174, 4-(4-(4-cyano-4-methylpiperidin-1-yl)-6,7-difluoroquinoline-3-carbonyl)-N,N-diethylpiperazine-1-carboxamide]	500 to 1000	1000 to 10000
CC1(C#N)CCN(c2c(C(=O)N3CCN(C(=O)N4CCCC4)CC3)cnc3cc(F)c(F)cc23)CC1 [Example 175, 1-(6,7-difluoro-3-(4-(pyrrolidine-1-carbonyl)piperazine-1-carbonyl)quinolin-4-yl)-4-methylpiperidine-4-carbonitrile]	1000 to 10000	1000 to 10000
CCS(=O)(=O)N1CCN(C(=O)c2cnc3cc(F)c(F)cc3c2N2CCC(C)(C#N)CC2)CC1 [Example 176, 1-(3-(4-(ethylsulfonyl)piperazine-1-carbonyl)-6,7-difluoroquinolin-4-yl)-4-methylpiperidine-4-carbonitrile]	< 500	1000 to 10000
CN(C)S(=O)(=O)N1CCN(C(=O)c2cnc3cc(F)c(F)cc3c2N2CCC(C)(C#N)CC2)CC1 [Example 177, 4-(4-(4-cyano-4-methylpiperidin-1-yl)-6,7-difluoroquinoline-3-carbonyl)-N,N-dimethylpiperazine-1-sulfonamide]	< 500	< 500
CC1(C#N)CCN(c2c(C(=O)N3CCN(S(=O)(=O)N4CCCC4)CC3)cnc3cc(F)c(F)cc23)CC1 [Example 178, 1-(6,7-difluoro-3-(4-(pyrrolidin-1-ylsulfonyl)piperazine-1-carbonyl)quinolin-4-yl)-4-methylpiperidine-4-carbonitrile]	1000 to 10000	> 10000
CN(C)C(=O)N1CCN(C(=O)c2cnc3ccc(F)cc3c2N2CCC3(CC2)OCCO3)CC1 [Example 179, 4-(6-fluoro-4-(1,4-dioxa-8-azaspiro[4.5]decan-8-yl)quinoline-3-carbonyl)-N,N-dimethylpiperazine-1-carboxamide]	< 500	500 to 1000
CN(C)C(=O)N1CCN(C(=O)c2cnc3c(F)cc(F)cc3c2N2CCC3(CC2)OCCO3)CC1 [Example 180, 4-(6,8-difluoro-4-(1,4-dioxa-8-azaspiro[4.5]decan-8-yl)quinoline-3-carbonyl)-N,N-dimethylpiperazine-1-carboxamide]	< 500	1000 to 10000
CN(C)C(=O)N1CCN(C(=O)c2cnc3cc(F)c(F)cc3c2N2CCC3(CC2)OCCO3)CC1 [Example 181, 4-(6,7-difluoro-4-(1,4-dioxa-8-azaspiro[4.5]decan-8-yl)quinoline-3-carbonyl)-N,N-dimethylpiperazine-1-carboxamide]	< 500	1000 to 10000
CN(C)C(=O)N1CCN(C(=O)c2cnc3c(F)cc(F)cc3c2N2CCC(C)(C#N)CC2)CC1 [Example 183, 4-(4-(4-cyano-4-methylpiperidin-1-yl)-6,8-difluoroquinoline-3-carbonyl)-N,N-dimethylpiperazine-1-carboxamide]	< 500	1000 to 10000
CN(C)C(=O)N1CCN(C(=O)c2cnc3cc(F)c(F)cc3c2N2CCC(C)(C#N)CC2)CC1 [Example 184, 4-(4-(4-cyano-4-methylpiperidin-1-yl)-6,7-difluoroquinoline-3-carbonyl)-N,N-dimethylpiperazine-1-carboxamide]	< 500	1000 to 10000
CS(=O)(=O)C1CCN(C(=O)c2cnc3ccc(F)cc3c2N2CCC3(CC2)OCCO3)CC1 [Example 185, (6-fluoro-4-(1,4-dioxa-8-azaspiro[4.5]decan-8-yl)quinolin-3-yl)(4-(methylsulfonyl)piperidin-1-yl)methanone]	< 500	1000 to 10000
CS(=O)(=O)C1CCN(C(=O)c2cnc3c(F)cc(F)cc3c2N2CCC3(CC2)OCCO3)CC1 [Example 186, (6,8-difluoro-4-(1,4-dioxa-8-azaspiro[4.5]decan-8-yl)quinolin-3-yl)(4-(methylsulfonyl)piperidin-1-yl)methanone]	< 500	1000 to 10000
CS(=O)(=O)C1CCN(C(=O)c2cnc3cc(F)c(F)cc3c2N2CCC3(CC2)OCCO3)CC1 [Example 187, (6,7-difluoro-4-(1,4-dioxa-8-azaspiro[4.5]decan-8-yl)quinolin-3-yl)(4-(methylsulfonyl)piperidin-1-yl)methanone]	< 500	1000 to 10000
CC1(C#N)CCN(c2c(C(=O)N3CCC(S(C)(=O)=O)CC3)cnc3c(F)cc(F)cc23)CC1 [Example 189, 1-(6,8-difluoro-3-(4-(methylsulfonyl)piperidine-1-carbonyl)quinolin-4-yl)-4-methylpiperidine-4-carbonitrile]	< 500	1000 to 10000
CC1(C#N)CCN(c2c(C(=O)N3CCC(S(C)(=O)=O)CC3)cnc3cc(F)c(F)cc23)CC1 [Example 190, 1-(6,7-difluoro-3-(4-(methylsulfonyl)piperidine-1-carbonyl)quinolin-4-yl)-4-methylpiperidine-4-carbonitrile]	< 500	1000 to 10000
O=C(C1CC1)C1CCN(C(=O)c2cnc3ccc(F)cc3c2N2CCC3(CC2)OCCO3)CC1 [Example 191, (4-(cyclopropanecarbonyl)piperidin-1-yl)(6-fluoro-4-(1,4-dioxa-8-azaspiro[4.5]decan-8-yl)quinolin-3-yl)methanone]	< 500	500 to 1000
O=C(C1CC1)C1CCN(C(=O)c2cnc3c(F)cc(F)cc3c2N2CCC3(CC2)OCCO3)CC1 [Example 192, (4-(cyclopropanecarbonyl)piperidin-1-yl)(6,8-difluoro-4-(1,4-dioxa-8-azaspiro[4.5]decan-8-yl)quinolin-3-yl)methanone]	< 500	500 to 1000
O=C(C1CC1)C1CCN(C(=O)c2cnc3cc(F)c(F)cc3c2N2CCC3(CC2)OCCO3)CC1 [Example 193, (4-(cyclopropanecarbonyl)piperidin-1-yl)(6,7-difluoro-4-(1,4-dioxa-8-azaspiro[4.5]decan-8-yl)quinolin-3-yl)methanone]	< 500	1000 to 10000
CC1(C#N)CCN(c2c(C(=O)N3CCC(C(=O)C4CC4)CC3)cnc3c(F)cc(F)cc23)CC1 [Example 195, 1-(3-(4-(cyclopropanecarbonyl)piperidine-1-carbonyl)-6,8-difluoroquinolin-4-yl)-4-methylpiperidine-4-carbonitrile]	< 500	1000 to 10000
CC1(C#N)CCN(c2c(C(=O)N3CCC(C(=O)C4CC4)CC3)cnc3cc(F)c(F)cc23)CC1 [Example 196, 1-(3-(4-(cyclopropanecareonyl)piperidine-1-carbonyl)-6,7-difluoroquinolin-4-yl)-4-methylpiperidine-4-carbonitrile]	< 500	1000 to 10000
CS(=O)(=O)N1CCN(C(=O)c2cnc3ccc(F)cc3c2N2CCC(Cc3ccccc3)CC2)CC1 [Example 198, (4-(4-benzylpiperidin-1-yl)-6-fluoroquinolin-3-yl)(4-(methylsulfonyl)piperazin-1-yl)methanone]	< 500	> 10000
O=C1CC2(CCN(c3c(C(=O)N4CCN(C(=O)C5CC5)CC4)cnc4ccc(F)cc34)CC2)c2ccccc21 [Example 203, 1′-(3-(4-(cyclopropanecarbonyl)piperazine-1-carbonyl)-6-fluoroquinolin-4-yl)spiro[indene-1,4′-piperidin]-3(2H)-one]	1000 to 10000	1000 to 10000
